The values below come from patent US5103007A, “Lipids” (Takeda Chemical Industries, Ltd., priority 1988, dated 1992).

Converted amounts (≈) assume the structure as drawn. Some results are limits rather than exact numbers.

Data set [1] is described as follows: Acute toxicity in CDF-1 female mice. The format is in vivo. The method, then: Acute toxicity of Compounds of Examples
CDF-1 female mice (5-week old: a group of consisting of 5 mice) were given once intraperitoneally 0.2 ml of a physiological saline solution of a compound of Example.

For a further data set, the system named is Sarcoma 180 cells. The data set can be described thus: Antitumor effect against Sarcoma 180 cells in ICR mice. Particulars: for Life-span prolongation ratio (T/C %): 0.33 mg/mouse i.p. 1 hour, 1 day and 2 days after inoculation, only related to mice which died; for Number of survivors/number of mice tested: 0.33 mg/mouse i.p. three times, on the 60th day. The format is in vivo, murine (ICR mice). The method, then:
Antitumor effect of compounds of Examples against Sarcoma 180 cells
ICR mice (a group consisting of 5 mice) were inoculated intraperitoneally with 1×10^5 Sarcoma 180 cells per mouse. Then, 0.33 mg/mouse of a compound dissolved in physiological saline was intraperitoneally administered three times, i.e. 1 hour, 1 day and 2 days after the inoculation. Shown in Table 4 are the life-span prolongation ratio against the control group without treatment and the number of surviving mice on the 60th day after the initiation of the test.

Data set [2] relates to murine colon cancer (colon 26). The data set can be described thus: Action against murine colon cancer (colon 26) in Balb/C mice. The format is in vivo. Particulars: 0.3 mg/mouse i.p., eight times; tumor weight after 14 days, against untreated control. The method, then:
Action of the compound in Example against murine colon cancer (colon 26)
Balb/C mice (a group consisting of five mice) were inoculated subcutaneously at dorsolateral area with 2×10^5 murine colon cancer (colon 26l) cells, and then given intraperitoneally 0.3 mg/mouse of the compound dissolved in physiological saline, eight times, i.e. 1 day, 2 days, 5 days, 6 days, 8 days, 9 days, 12 days and 13 days after the inoculation. After 14 days, the tumor tissue was extirpated and the tumor weight was weighed. Shown in Table 2 is tumor growth inhibition ratio against the untreated control.

Data set [3] relates to human nasopharynx cancer (KB cells). The data set can be described thus: Inhibition of multiplication of human nasopharynx cancer (KB cells), MTT assay. The following applies: 72 hours. The format is cell-based. How it is done: (§1) The effect (IC50) of the compounds obtained by Examples in inhibiting multiplication of human nasopharynx cancer (KB cells) and human colon adenocarcinoma (colon 205 cells) Each well of a 96-well microtiter plate was inoculated with 0.1 ml of human nasopharynx cancer (KB cells) (1×10^4 /ml) or human colon adenocarcinoma (colon 205 cells) (2×10^4 /ml), which was then subjected to cultivation by allowing to stand at 37° C. for 24 hours in 5% CO2. To the culture was added a 10% MEM solution (manufactured by Nissui Seiyaku or RPMI-1640), and cultivation was continued at 37° C. for 72 hours in 5% CO2. Then, the culture solution was removed with a micro-pipette. […] Incubation was conducted at 37° C for 4 hours, to which was then added 0.1 ml of a 10% SDS (Wako Pure Chemical Industries, Ltd.), and the incubation was continued at 37° C. for 24 hours.
On the technique in general: Tetrazolium dyes change colour on reduction, which living cells bring about.

Data set [4] relates to human colon adenocarcinoma (colon 205 cells). Description: Inhibition of multiplication of human colon adenocarcinoma (colon 205 cells), MTT assay. The format is cell-based. The following applies: 72 hours. The method, then:
as §1

The next data set concerns breast cancer cells MM46. Description: Action against breast cancer cells MM46 in C3H mice. The format is in vivo, murine (C3H mice). The following applies: for Life-span prolongation ratio (T/C %): 0.20 mg/mouse once a day for 4 consecutive days, only related to mice which died; for No. of survivors/No. of mice tested: 0.20 mg/mouse once a day for 4 days, on the 60th day. How it is done: Action of the compounds obtained in Examples against breast cancer cells MM46
C3H mice (a group consisting of 5 mice) were inoculated intraperitoneally with 1×10^4 MM46 cells per mouse, and given 0.20 mg/mouse of compounds of Examples dissolved in physiological saline once a day for 4 consecutive days starting from the second day after the inoculation. Shown in Table 3 are the life-span prolongation ratio against the control group without treatment and the number of surviving mice on the 60th day after starting the test.

The mark [5] stands for this setting: 50 mg/kg once i.p., after 7 days.

With `CCCCCCCCCCCCCCCCCCOCC(C[S+]([O-])CCOCC[n+]1ccsc1)Oc1ncccn1` (stereo not shown) [Ex. 1, 2-[2-[3-octadecyloxy-2-(pyrimidin-2-yloxy)propylsulfinyl]ethoxy]ethylthiazolium chloride], the “No. of dead mice/No. of mice tested” value in data set [1] (mouse, in vivo) is listed as 0/5. Further, in the data set on Sarcoma 180 cells, the “Life-span prolongation ratio (T/C %)” value amounted to 235% and the “Number of survivors/number of mice tested” value was 2/5. Also, in data set [2], the “Growth inhibition ratio (1-T/C %)” value is 48%. In addition, the midpoint of inhibition in data set [3], the IC50, lay at 1.25 µg/mL. This compound also had an IC50 in data set [4] of 1.25 µg/mL. Besides, in the data set with breast cancer cells MM46, the “Life-span prolongation ratio (T/C %)” value is given as 147% and the “No. of survivors/No. of mice tested” value is on record as 4/5.
`CCCCCCCCCCCCCCCCCCOCC(C[S+]([O-])CCOCC[n+]1ccccc1)Oc1ncccn1.[Cl-]` (stereo not shown) [Ex. 2, N-[2-[2-[3-octadecyloxy-2-(pyrimidin-2-yloxy)propylsulfinyl]ethoxy]ethyl]pyridinium chloride]: the “No. of dead mice/No. of mice tested” value in data set [1] (mouse, in vivo) is listed as 0/5. The same compound yielded an IC50 in data set [3] of 0.32 µg/mL. For the same compound, the IC50 in data set [4] amounted to 0.16 µg/mL. Further, in the data set on breast cancer cells MM46, the “Life-span prolongation ratio (T/C %)” value worked out at 150% and the “No. of survivors/No. of mice tested” value is listed as 2/5.
`CCCCCCCCCCCCCCCCCCOCC(C[S+]([O-])CCOCC[n+]1cccc(CCCO)c1)Oc1ncccn1.[Cl-]` (stereo not shown) [Ex. 3, 3-(3-hydroxypropyl)-1-[2-[2-[3-octadecyloxy-2-(pyrimidin-2-yloxy)propylsulfinyl]ethoxy]-ethyl]pyridinium chloride]: in the data set on Sarcoma 180 cells, the “Life-span prolongation ratio (T/C %)” value was 223% and the “Number of survivors/number of mice tested” value is listed as 2/5. In data set [3], this compound came in with an IC50 of 0.16 µg/mL. The same compound came in with an IC50 in data set [4] of 0.63 µg/mL.
On to `CCCCCCCCCCCCCCCCCCOCC(C[S+]([O-])CCOCC[n+]1csc(CCO)c1C)Oc1ncccn1.[Cl-]` (stereo not shown) [Ex. 6, 5-(2-hydroxyethyl)-4-methyl-3-[2-[2-[3-octadecyloxy-2-(pyrimidin-2-yloxy)propylsulfinyl]ethoxy]-ethyl]thiazolium chloride], for which, in the data set on Sarcoma 180 cells, the “Life-span prolongation ratio (T/C %)” value is 213% and the “Number of survivors/number of mice tested” value was 1/5. In data set [3], this compound registered an IC50 of 0.32 µg/mL. In addition, 0.63 µg/mL corresponded to half-maximal inhibition in data set [4] (IC50).
As for `CCCCCCCCCCCCCCCCCCOCC(CSCCOCC[n+]1ccn(CCCCCC(=O)[O-])c1)Oc1ncccn1` (stereo not shown) [Ex. 9, 6-[3-[2-[2-[3-octadecyloxy-2-(pyrimidin-2-yloxy)propylthio]ethoxy]ethyl]imidazolio-1-yl]hexanoate], the “No. of dead mice/No. of mice tested” value in data set [1] (mouse, in vivo) is 0/5. Also, the IC50 in data set [3] came out at 0.32 µg/mL (≈ 0.463 µM); in data set [4], 0.63 µg/mL (≈ 0.912 µM).
Take `CCCCCCCCCCCCCCCCCCOCC(CSCCOCC[n+]1ccn(CCCC(=O)[O-])c1)Oc1ncccn1` (stereo not shown) [Ex. 11, 4-[3-[2-[2-[3-octadecyloxy-2-(pyrimidin-2-yloxy)propylthio]ethoxy]ethyl]imidazolio-1-yl]butyrate]: the “No. of dead mice/No. of mice tested” value in data set [1] (setting [5]) was 0/5.
In the case of `CCCCCCCCCCCCCCCCCCOCC(CSCCCOCCCn1ccnc1)Oc1ncccn1` (stereo not shown) [Ex. 12, N-[3-[3-[3-octadecyloxy-2-(pyrimidin-2-yloxy)propylthio]propoxy]propyl]imidazole], the “No. of dead mice/No. of mice tested” value in data set [1] (setting [5]) is recorded as 0/5.
On to `CCCCCCCCCCCCCCCCCCOCC(CS(=O)(=O)CCOCC[n+]1ccsc1)Oc1ncccn1` (stereo not shown) [Ex. 19, 2-[2-[3-octadecyloxy-2-(pyrimidin-2-yl-oxy)propylsulfonyl]ethoxy]ethylthiazolium chloride], for which, in the data set on breast cancer cells MM46, the “Life-span prolongation ratio (T/C %)” value was found to be 154% and the “No. of survivors/No. of mice tested” value is recorded as 2/5.
In turn, `CCCCCCCCCCCCCCCCCCOCC(CS(=O)(=O)CCOCC[N+](C)(C)C)Oc1ncccn1.[Cl-]` (stereo not shown) [Ex. 21, N-[2-[2-[3-octadecyloxy-2-(pyrimidin-2-yloxy)propylsulfonyl]ethoxy]ethyl]-N,N,N-trimethylammonium chloride] came in with a 50% inhibitory concentration (IC50) in data set [3] of 0.32 µg/mL. Besides, in the data set with breast cancer cells MM46, the “Life-span prolongation ratio (T/C %)” value is 144% and the “No. of survivors/No. of mice tested” value is 2/5.
On to `CCCCCCCCCCCCCCCCCCOCC(C[S+]([O-])CCOCC[N+](C)(C)C)Oc1ncccn1.[Cl-]` (stereo not shown) [Ex. 24, N-[2-[2-[3-octadecyloxy-2-(pyrimidin-2-yloxy)propylsulfinyl]ethoxy]ethyl]-N,N,N-trimethylammonium chloride], for which the “No. of dead mice/No. of mice tested” value in data set [1] (mouse, in vivo) is reported as 0/5. For the same compound, in the data set on Sarcoma 180 cells, the “Life-span prolongation ratio (T/C %)” value was 195% and the “Number of survivors/number of mice tested” value was 1/5. In data set [3], the IC50 is below 0.16 µg/mL. For the same compound, the IC50 in data set [4] was 0.63 µg/mL.
Regarding `CC(C)CCCC(C)CCCC(C)CCCC(C)CCOCC(C[S+]([O-])CCOCC[n+]1ccccc1)Oc1ncccn1.[Cl-]` (stereo not shown) [Ex. 39, N-[2-[2-[2-(pyrimidin-2-yloxy)-3-(3,7,11, 15-tetramethylhexadecyloxy)propylsulfinyl]ethoxy]ethyl]-pyridinium chloride], the concentration for half-maximal inhibition (IC50) in data set [3] came to 0.16 µg/mL; in data set [4] it was 0.63 µg/mL.
Take `CCCCCCCCCCCCCCCCCCOCC(CS(=O)(=O)CCCCCOCCCCC[n+]1ccccc1)Oc1ncccn1.[Cl-]` (stereo not shown) [Ex. 42, N-[5-[5-[3-octadecyloxy-2-(pyrimidin-2-yloxy)propylsulfonyl]pentyloxy]pentyl]pyridinium chloride]: the IC50 in data set [3] stood at 0.32 µg/mL; in data set [4], 1.25 µg/mL.
Take `CCCCCCCCCCCCCCCCCCOCC(CSCCOCC[N+](C)(C)C)OC` (stereo not shown) [Ex. 43, N-[2-(2-methoxy-3-oxtadecyloxypropylthio)ethoxy]ethyl-N,N,N-trimethylammonium chloride]: the IC50 in data set [3] was determined as 0.32 µg/mL; in data set [4], 1.25 µg/mL.
On to `CCCCCCCCCCCCCCCCCCOCC(C[S+]([O-])CCOCC[N+](C)(C)C)OC.[Cl-]` (stereo not shown) [Ex. 44, N-[2-[2-(2-methoxy-3-octadecyloxypropylsulfinyl)ethoxy]ethyl]-N,N,N-trimethylammonium chloride], for which the IC50 amounted to 0.16 µg/mL in data set [3] and 0.32 µg/mL in data set [4].
With `CCCCCCCCCCCCCCCCCCOCC(CSCCOCC[n+]1ccn(CCCC(=O)[O-])c1)OC` (stereo not shown) [Ex. 45, 4-[3-[2-[2(2-methoxy-3-octadecyloxypropylthio)ethoxy]ethyl]imidazolio-1-yl]butyrate], the IC50 is 0.63 µg/mL (≈ 1.05 µM) in data set [3] and 2.5 µg/mL (≈ 4.17 µM) in data set [4].
For `CCCCCCCCCCCCCCCCCCOCC(CSCCOCC[n+]1cccc(CCCCC(=O)[O-])c1)OC` (stereo not shown) [Ex. 46, 5-[1-[2-[2-(2-methoxy-3-octadecyloxypropylthio)ethoxy]ethyl]pyridinio-3-yl]-pentanoate], the figures for the IC50 in data set [3] and in data set [4] were 0.32 µg/mL (≈ 0.513 µM) and 2.5 µg/mL (≈ 4.01 µM), respectively.
In the case of `CCCCCCCCCCCCCCCCCCOCC(CSCCOCCOCC[N+](C)(C)C)Oc1ncccn1` (stereo not shown) [Ex. 47, N-[2-[2-[2-[3-octadecyloxy-2-(pyrimidin-2-yloxy)propylthio]ethoxy]ethoxy]ethyl]-N,N,N,trimethylammonium chloride], the results for the IC50 in data set [3] and in data set [4] were 0.63 µg/mL and 1.25 µg/mL, respectively.
`CCCCCCCCCCCCCCCCCCOCC(C[S+]([O-])CCOCCOCC[N+](C)(C)C)Oc1ncccn1.[Cl-]` (stereo not shown) [Ex. 48, N-[2-[2-[3-octadecyloxy-2-(pyrimidin-2-yloxy)propylsulfinyl]ethoxy]ethoxy]ethyl-N,N,N-trimethylammonium chloride]: the IC50 is 0.16 µg/mL in data set [3] and 0.63 µg/mL in data set [4].

By IC50 is commonly meant the concentration needed to halve the response being measured. A higher IC50 goes with weaker potency.
